system: Human Umbilical Vein Endothelial cells; assay: VEGF-stimulated HUVEC proliferation assay; assay type: cell-based; conditions: 72 h, CyQuant, read-out: inhibited VEGF-stimulated HUVEC proliferation at a level
Procedure: Human Umbilical Vein Endothelial cells are purchased from Clonetics, Inc., as cryopreserved cells harvested from a pool of donors. These cells, at passage 1, are thawed and expanded in EBM-2 complete medium, until passage 2 or 3. The cells are trypsinized, washed in DMEM+10% FBS+antibiotics, and spun at 1000 rpm for 10 min. Prior to centrifugation of the cells, a small amount is collected for a cell count. After centrifugation, the medium is discarded, and the cells are resuspended in the appropriate volume of DMEM+10% FBS+antibiotics to achieve a concentration of 3×10^5 cells/mL. Another cell count is performed to confirm the cell concentration. The cells are diluted to 3×10^4 cells/mL in DMEM+10% FBS+antibiotics, and 100 μL of cells are added to a 96-well plate. The cells are incubated at 37° C. for 22 h.
Prior to the completion of the incubation period, compound dilutions are prepared. Five-point, five-fold serial dilutions are prepared in DMSO, at concentrations 400-fold greater than the final concentrations desired. 2.5 μL of each compound dilution are diluted further in a total of 1 mL DMEM+10% FBS+antibiotics (400× dilution). Medium containing 0.25% DMSO is also prepared for the 0 μM compound sample. At the 22-hour timepoint, the medium is removed from the cells, and 100 μL of each compound dilution is added. The cells are incubated at 37° C. for 2-3 h.
During the compound pre-incubation period, the growth factors are diluted to the appropriate concentrations. Solutions of DMEM+10% FBS+antibiotics, containing either VEGF or bFGF at the following concentrations: 50, 10, 2, 0.4, 0.08, and 0 ng/mL are prepared. For the compound-treated cells, solutions of VEGF at 550 ng/mL or bFGF at 220 ng/mL for 50 ng/mL or 20 ng/mL final concentrations, respectively, are prepared since 10 μL of each will be added to the cells (110 μL final volume). At the appropriate time after adding the compounds, the growth factors are added. VEGF is added to one set of plates, while bFGF is added to another set of plates. For the growth factor control curves, the media on wells B4-G6 of plates 1 and 2 are replaced with media containing VEGF or bFGF at the varying concentrations (50-0 ng/mL). The cells are incubated at 37° C. for an additional 72 h.
At the completion of the 72 h incubation period, the medium is removed, and the cells are washed twice with PBS. After the second wash with PBS, the plates are tapped gently to remove excess PBS, and the cells are placed at −70° C. for at least 30 min. The cells are thawed and analyzed using the CyQuant fluorescent dye (Molecular Probes C-7026), following the manufacturer's recommendations. The plates are read on a Victor/Wallac 1420 workstation at 485 nm/530 nm (excitation/emission). Raw data are collected and analyzed using a 4-parameter fit equation in XLFit. IC50 values are then determined.

Compound | IC50
CCOC(=O)C(C)c1ccc(NC(=O)c2cccnc2Nc2ccc3ccncc3c2)cc1 (racemic) [Example 52, 2(R,S)-(4-{[2-(Isoquinolin-7-ylamino)-pyridine-3-carbonyl]-amino}-phenyl)-propionic acid ethyl ester] | < 1 µM
CC1(C)CNc2cc(NC(=O)c3cccnc3Nc3cccc4cnccc34)ccc21 [Example 70, N-(3,3-Dimethyl-2,3-dihydro-1H-indol-6-yl)-2-(isoquinolin-5-ylamino)-nicotinamide] | < 1 µM
CC(C)(C)c1ccc(NC(=O)c2cccnc2Nc2ccc3ccncc3c2)cc1 [Example 14, N-(4-tert-Butyl-phenyl)-2-(isoquinolin-7-ylamino)-nicotinamide] | < 1 µM
CC(C)(C)c1ccc(NC(=O)c2cccnc2Nc2ccc3ncncc3c2)cc1 [Example 56, N-(4-tert-Butyl-phenyl)-2-(quinazolin-6-ylamino)-nicotinamide] | < 1 µM
CC(=O)N1Cc2cc(NC(=O)c3cccnc3Nc3ccc4ccncc4c3)ccc2C(C)(C)C1 [Example 13, N-(2-Acetyl-4,4-dimethyl-1,2,3,4-tetrahydro-isoquinolin-7-yl)-2-(isoquinolin-7-ylamino)-nicotinamide] | < 1 µM
CC(=O)N1CC(C)(C)c2ccc(NC(=O)c3cccnc3Nc3ccc4ccncc4c3)cc21 [Example 31, N-(1-Acetyl-3,3-dimethyl-2,3-dihydro-1H-indol-6-yl)-2-(isoquinolin-7-ylamino)-nicotinamide] | < 1 µM
CC(C)(C)OC(=O)N1Cc2cc(NC(=O)c3cccnc3Nc3cnc4ccncc4c3)ccc2C(C)(C)C1 [Example 36, 4,4-Dimethyl-7-{[2-([1,6]naphthyridin-3-ylamino)-pyridine-3-carbonyl]-amino}-3,4-dihydro-1H-isoquinoline-2-carboxylic acid tert butyl ester] | < 1 µM
Cc1cc(NC(=O)c2cccnc2Nc2ccc3ccncc3c2)ccc1C(C)C [Example 49, N-(4-Isopropyl-3-methyl-phenyl)-2-(isoquinolin-7-ylamino)-nicotinamide] | < 1 µM
O=C(Nc1ccc(C(F)(F)C(F)(F)F)cc1)c1cccnc1Nc1ccc2ccncc2c1 [Example 11, 2-(Isoquinolin-7-ylamino)-N-(4-pentafluoroethyl-phenyl)-nicotinamide] | < 1 µM
O=C(Nc1cc(OCC2CCCO2)cc(C(F)(F)F)c1)c1cccnc1Nc1ccc2ccncc2c1 (stereo not drawn) [Example 40] | < 1 µM
CC(C)(C)c1ccc(NC(=O)c2cccnc2Nc2cccc3cnccc23)cc1 [Example 67, N-(4-tert-Butyl-phenyl)-2-(isoquinolin-5-ylamino)-nicotinamide] | < 1 µM
Cc1ccc(NC(=O)c2cccnc2Nc2ccc3nc(N)ncc3c2)cc1Cl [Example 64, 2-(2-aminoquinazolin-6-ylamino)-N-(3-chloro-4-methylphenyl)nicotinamide] | < 1 µM
CC(C)(C)c1ccc(NC(=O)c2cccnc2Nc2ccc3ccncc3c2)cn1 [Example 42, N-(6-tert-Butyl-pyridin-3-yl)-2-(isoquinolin-7-ylamino)-nicotinamide] | < 1 µM
Nc1ncc2cc(Nc3ncccc3C(=O)Nc3ccc(Cl)cc3)ccc2n1 [Example 65, 2-(2-aminoquinazolin-6-ylamino)-N-(4-chlorophenyl)nicotinamide] | < 1 µM
CC(C)(C)c1ccc(NC(=O)c2ccccc2Nc2ccc3ccncc3n2)cc1 [Example 76, N-(4-tert-Butyl-phenyl)-2-([1,7]naphthyridin-2-ylamino)-benzamide] | < 1 µM
CC(C)(C)c1ccc(NC(=O)c2cccnc2Nc2cnc3ccncc3c2)cc1 [Example 35, N-(4-tert-Butyl-phenyl)-2-([1,6]naphthyridin-3-ylamino)-nicotinamide] | < 1 µM
CC1(C)CC(=O)Nc2cc(NC(=O)c3cccnc3Nc3ccc4[nH]nnc4c3)ccc21 [Example 24, 2-(1H-1,2,3-benzotriazol-5-ylamino)-N-(4,4-dimethyl-2-oxo-1,2,3,4-tetrahydroquinolin-7-yl)nicotinamide] | < 1 µM
CC(C)(C)c1ccc(NC(=O)c2cccnc2Nc2cccc3ncccc23)cc1 [Example 72, N-(4-(1,1-dimethylethyl)phenyl)-2-(5-quinolinylamino)-3-pyridinecarboxamide] | < 1 µM
CNc1ncnc2ccc(Nc3ncccc3C(=O)Nc3ccc4c(c3)CN(C(C)=O)CC4(C)C)cc12 [Example 16, N-(2-Acetyl-4,4-dimethyl-1,2,3,4-tetrahydro-isoquinolin-7-yl)-2-(4-methylamino-quinazolin-6-ylamino)-nicotinamide] | < 1 µM
O=C(Nc1ccc(N2CCC2)nc1)c1cccnc1Nc1ccc2ccncc2c1 [Example 45, N-(6-Azetidin-1-yl-pyridin-3-yl)-2-(isoquinolin-7-ylamino)-nicotinamide] | < 1 µM
Cc1cc(NC(=O)c2cccnc2Nc2ccc3ccncc3c2)ccc1N1CCCC1 [Example 62, 2-(isoquinolin-7-ylamino)-N-(3-methyl-4-(pyrrolidin-1-yl)phenyl)nicotinamide] | < 1 µM
COc1cc(NC(=O)c2cccnc2Nc2ccc3ccncc3c2)cc(C(F)(F)F)c1 [Example 33, 2-(Isoquinolin-7-ylamino)-N-(3-methoxy-5-trifluoromethyl-phenyl)-nicotinamide] | < 1 µM
COC(c1ccc(NC(=O)c2cccnc2Nc2ccc3ccncc3c2)cc1)(C(F)(F)F)C(F)(F)F [Example 10, 2-(Isoquinolin-7-ylamino)-N-[4-(2,2,2-trifluoro-1-methoxy-1-trifluoromethyl-ethyl)-phenyl]-nicotinamide] | < 1 µM
CC1(C)CC(=O)Nc2nc(NC(=O)c3cccnc3Nc3ccc4ncncc4c3)ccc21 [Example 59, N-(5,5-dimethyl-7-oxo-5,6,7,8-tetrahydro-1,8-naphthyridin-2-yl)-2-(quinazolin-6-ylamino)nicotinamide] | < 1 µM
CC1(C)CC(=O)Nc2nc(NC(=O)c3cccnc3Nc3ccc4ccncc4c3)ccc21 [Example 58, N-(5,5-dimethyl-7-oxo-5,6,7,8-tetrahydro-1,8-naphthyridin-2-yl)-2-(isoquinolin-7-ylamino)nicotinamide] | < 1 µM
Cc1ccc(NC(=O)c2cccnc2Nc2ccc3ccncc3c2)cc1Cl [Example 60, N-(3-chloro-4-methylphenyl)-2-(isoquinolin-7-ylamino)nicotinamide] | < 1 µM
CC1(C)CNCc2cc(NC(=O)c3cccnc3Nc3cccc4cnccc34)ccc21 [Example 69, N-(4,4-Dimethyl-1,2,3,4-tetrahydro-isoquinolin-7-yl)-2-(isoquinolin-5-ylamino)-nicotinamide] | < 1 µM
CC(C)(C)c1ccc(NC(=O)c2cccc(F)c2Nc2ccc3ccncc3c2)cc1 [Example 29, N-(4-tert-Butyl-phenyl)-3-fluoro-2-(isoquinolin-7-ylamino)-benzamide] | < 1 µM
O=C(Nc1ccc(C(O)(C(F)(F)F)C(F)(F)F)cc1)c1cccnc1Nc1ccc2ccncc2c1 [Example 43, 2-(Isoquinolin-7-ylamino)-N-[4-(2,2,2-trifluoro-1-hydroxy-1-trifluoromethyl-ethyl)-phenyl]-nicotinamide] | < 1 µM
CC1(C)CNCc2cc(NC(=O)c3cccnc3Nc3ccc4ccncc4c3)ccc21 [Example 41, N-(4,4-Dimethyl-1,2,3,4-tetrahydro-isoquinolin-7-yl)-2-(isoquinolin-7-ylamino)-nicotinamide] | < 1 µM

— US7507748B2, “Substituted aryl-amine derivatives and methods of use” (Amgen Inc., priority 2004, dated 2009)
